Data reported in publication PMC7122770, “Potential endocrine disrupting properties of toys for babies and infants” (PLoS ONE, 2020).
pEC50: −log10 of the molar value. Where a name gives a salt, the structure may show the parent alone. Read-outs that look alike come from different tables or passages of the source. One block for each molecule: values may come before it.

Columns and labels:
[1] = molecular target: T1, human estrogen receptor (Estrogen Receptor α) (Homo sapiens, UniProt P03372); test: Analysis of detected pure substances in ER-CALUX; type: cell-based; details: for % E2 max: mean of triplicates
T1 sequence (P03372 1-595): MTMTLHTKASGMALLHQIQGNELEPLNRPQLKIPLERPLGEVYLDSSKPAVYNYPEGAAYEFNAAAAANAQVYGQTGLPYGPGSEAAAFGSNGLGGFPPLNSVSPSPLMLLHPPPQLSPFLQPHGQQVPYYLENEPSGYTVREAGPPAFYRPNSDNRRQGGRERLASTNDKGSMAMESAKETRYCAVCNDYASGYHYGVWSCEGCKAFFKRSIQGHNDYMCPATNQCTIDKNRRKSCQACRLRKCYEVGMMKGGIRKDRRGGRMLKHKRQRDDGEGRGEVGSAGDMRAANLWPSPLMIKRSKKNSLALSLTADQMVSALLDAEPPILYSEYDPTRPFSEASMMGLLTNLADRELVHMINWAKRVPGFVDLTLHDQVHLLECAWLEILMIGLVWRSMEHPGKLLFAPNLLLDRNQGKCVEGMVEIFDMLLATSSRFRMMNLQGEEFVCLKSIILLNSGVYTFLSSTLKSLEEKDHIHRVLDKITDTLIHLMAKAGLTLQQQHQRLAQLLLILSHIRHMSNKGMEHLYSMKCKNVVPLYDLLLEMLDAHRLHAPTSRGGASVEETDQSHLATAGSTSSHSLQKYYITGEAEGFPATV

[2] = cited from earlier work
[3] = cited from earlier work; remark: listed apart in the source
[4] = Toxicological reference values (TDI, ADI, reference dose); design: species or system human
Source text: Risks were estimated by comparing the daily exposure (DE) to toxicological reference values (TRV) when available.

[5] = system: U2-OS osteosarcoma cell line; test: Cytotoxic effects / cell viability in the CALUX cells; type: cell-based, human; details: two highest concentrations in ER-CALUX
[6] = pure substance in ER-CALUX, read-out: EC50
[7] = 2,50E-06 mol/l in bioassay medium
[8] = 5,00E-06 mol/l in bioassay medium
[9] = 2,50E-04 mol/l in bioassay medium
[10] = 5,00E-04 mol/l in bioassay medium
[11] = 5,00E-05 mol/l in bioassay medium

SMILES: CC(C)C(=O)OCC(C)(C)C(OC(=O)C(C)C)C(C)C (centres unmarked) [2,2,4-Trimethyl-1,3-pentanediol diisobutyrate]
pEC50 [1]: < 3.30 | Estrogen active [yes/no] ([1]; pure substance in ER-CALUX): no | Estrogen active [yes/no] ([1]; pure substance in ER-CALUX, listed as TXIB): negative

endocrine activity in the in vitro tests used in this study ([1]; pure substance): not endocrine active | Estrogen active [yes/no] ([1]; pure substance in ER-CALUX): no | pEC50 [1, 6]: < 3.30
SMILES: CCCCCCCC/C=C\CCCCCCCCCCCC(N)=O [13-Docosenamide (Z)]

SMILES: C#C[C@]1(O)CC[C@H]2[C@@H]3CCc4cc(O)ccc4[C@H]3CC[C@@]21C [17α-ethinyl estradiol, reference compound]
in vitro estrogen activity compared with 17β-estradiol [2]: approximatively the same in vitro estrogen activity as the natural sex hormone 17β-estradiol | acceptable daily intake (ADI) ([3]; adult person (60 kg), based on working place thresholds ref 40): 7 ng | fold lower ADI than 17β-estradiol [4]: approximately 400 fold

SMILES: CCCCOC(=O)CC(CC(=O)OCCCC)(OC(C)=O)C(=O)OCCCC [Acetyl tributyl citrate (ATBC), Acetyl tributyl citrate]
estrogenic or androgenic activity ([2]; based on published data ref 2): does not seem to show estrogenic or androgenic activity

SMILES: O=C(c1ccccc1)c1ccccc1 [Benzophenone]
tolerable daily intake (TDI) ([3]; recommended by the European Food Safety Agency ref 43): 30 μg/kg body weight per day

SMILES: CC(C)(c1ccc(O)cc1)c1ccc(O)cc1 [Bisphenol A (BPA), Bisphenol A]
temporary tolerable daily intake (TDI) ([3]; recommended by EFSA, taking into account endocrine effects ref 43): 4 μg/kg body weight per day | % E2 max [1, 7]: 151% | % E2 max [1, 8]: 154% | % E2 max ([1]; 5,00E-07 mol/l in bioassay medium): 116% | % E2 max ([1]; 5,00E-08 mol/l in bioassay medium): 11% | % E2 max ([1]; 5,00E-09 mol/l in bioassay medium): 5% | factor less estrogen active than the natural estrogen 17β-estradiol ([1]; based on response curves in ER-CALUX (Fig 2)): ~30.000

SMILES: CCOC(=O)c1ccccc1C(=O)OCC [Diethyl phthalate (DEP), Diethyl phthalate]
% E2 max [1, 9]: 47% | % E2 max [1, 7]: 9% | % E2 max [1, 10]: 69% | % E2 max [1, 11]: 23% | % E2 max [1, 8]: 10% | Estrogen active [yes/no] ([1]; pure substance in ER-CALUX): yes | pEC50 [1, 6]: 3.70

Estrogen active [yes/no] ([1]; pure substance in ER-CALUX): no | Estrogen active [yes/no] ([1]; pure substance in ER-CALUX, listed as DINCH): negative | pEC50 [1, 6]: < 3.30
SMILES: CC(C)CCCCCCOC(=O)C1CCCCC1C(=O)OCCCCCCC(C)C (centres unmarked) [Diisononyl cyclohexane-1,2-dicarboxylate]
lowest reference value published [3]: 0.7 mg/kg bw/day

% E2 max [1, 9]: 8% | % E2 max [1, 7]: 4% | % E2 max [1, 10]: 3% | % E2 max [1, 11]: 34% | % E2 max [1, 8]: 6% | Estrogen active [yes/no] ([1]; pure substance in ER-CALUX): yes | Estrogen active [yes/no] ([1]; pure substance in ER-CALUX, listed as TBC): low, but significant estrogen activity | pEC50 [1, 6]: 4.30
SMILES: CCCCOC(=O)CC(O)(CC(=O)OCCCC)C(=O)OCCCC [Tributyl citrate (TBC), Tributyl citrate]
cell viability [5]: decrease in cell viability
